{"source": "patent US10174067B2", "about": "“Type of cytidine derivative and application thereof” (priority 2014, dated 2019)", "key": {"[1]": {"tested_on": "HCT-116 colon cancer xenografts", "assay": "Tumor growth inhibition of HCT-116 colon cancer xenografts in tumor-bearing nude mice (tumor volume, TGI %, RTV, T/C %);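 as to T/C % (relative tumor proliferation rate): control C is the vehicle-treated model control group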", "type": "in vivo, Balb/c Nude mice", "conditions": "for T/C % (relative tumor proliferation rate): single-dose intraperitoneal, dosage mg/kg: G3, G4, G8 350, G5, G9 325, G6 300, G7 250", "summary_of_the_method": "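Tumors in HCT-116-inoculated nude mice were sized three times weekly by diameter, with volume V=3/4π(D/2)^3. Significance set at P<0.05.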"}, "[2]": {"summary_of_the_method": "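Test compounds formulated in ethanol:Cremophor EL:saline (5:5:90), vehicle alone as control, in HCT-116 subcutaneous xenografts in female Balb/c nudes (6/group, start 60–150 mm^3). Weight measured three times weekly, tumour weight at end; unpaired t-test on Mean±SEM data.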"}, "[3]": {"tested_on": "ICR mice", "assay": "in vivo", "conditions": "female ICR mice; single-dose ip", "summary_of_the_method": "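MTD, the dose without mortality, body-weight loss over 10% from Day 0 or marked adverse signs, was found by stepwise up/down single intraperitoneal dosing of female SPF ICR mice. Vehicle: ethanol:Cremophor EL:saline 5:5:90. Animals weighed daily and clinically checked twice daily for up to 14 days.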"}, "[4]": {"conditions": "Day 0, G3-G9 groups, single IP dose, Mean±SEM"}, "[5]": {"conditions": "Day 4, G3-G9 groups, single IP dose, Mean±SEM"}, "[6]": {"conditions": "Day 6, G3-G9 groups, single IP dose, Mean±SEM"}, "[7]": {"conditions": "Day 8, G3-G9 groups, single IP dose, Mean±SEM"}, "[8]": {"conditions": "Day 11, G3-G9 groups, single IP dose, Mean±SEM"}, "[9]": {"conditions": "Day 13, G3-G9 groups, single IP dose, Mean±SEM"}, "[10]": {"conditions": "Day 15, G3-G9 groups, single IP dose, Mean±SEM"}, "[11]": {"conditions": "Day 18, G3-G9 groups, single IP dose, Mean±SEM"}, "[12]": {"conditions": "Day 20, G3-G9 groups, single IP dose, Mean±SEM"}, "[13]": {"conditions": "Day 22, G3-G9 groups, single IP dose, Mean±SEM"}}, "note": "Marks after values point to notes of the source that are not given here."}
{"smiles": "CC(C)(C)OC(=O)Nc1ccn([C@@H]2O[C@H](CO)[C@@H](O)C2(F)F)c(=O)n1", "note": "[Compound G3, 4N-(t-butyloxycarbonyl)-2′deoxy-2′,2′-difluorocytidine]", "values": [{"measurement": "Day 0 (RTV)", "setting": "[1]; [4]", "result": "1.00 ± 0.00"}, {"measurement": "Tumor volume, Day 0", "setting": "[1]; [4]", "result": "52.61 ± 13.58** mm^3"}, {"measurement": "T/C % (relative tumor proliferation rate)", "setting": "[1]; Day 0", "result": 0.00, "unit": "%"}, {"measurement": "Day 4 (TGI %)", "setting": "[1]; Day 4, G3-G9 groups, single IP dose", "result": 57.58, "unit": "%"}, {"measurement": "Day 4 (RTV)", "setting": "[1]; [5]", "result": "1.72 ± 0.37"}, {"measurement": "Tumor volume, Day 4", "setting": "[1]; [5]", "result": "113.01 ± 44.54", "unit": "mm^3"}, {"measurement": "T/C % (relative tumor proliferation rate)", "setting": "[1]; Day 4", "result": 91.44, "unit": "%"}, {"measurement": "Day 6 (TGI %)", "setting": "[1]; Day 6, G3-G9 groups, single IP dose", "result": 57.20, "unit": "%"}, {"measurement": "Day 6 (RTV)", "setting": "[1]; [6]", "result": "3.21 ± 0.87"}, {"measurement": "Tumor volume, Day 6", "setting": "[1]; [6]", "result": "180.94 ± 66.04* mm^3"}, {"measurement": "T/C % (relative tumor proliferation rate)", "setting": "[1]; Day 6", "result": 106.22, "unit": "%"}, {"measurement": "Day 8 (TGI %)", "setting": "[1]; Day 8, G3-G9 groups, single IP dose", "result": 58.10, "unit": "%"}, {"measurement": "Day 8 (RTV)", "setting": "[1]; [7]", "result": "3.91 ± 1.20"}, {"measurement": "Tumor volume, Day 8", "setting": "[1]; [7]", "result": "220.12 ± 86.80* mm^3"}, {"measurement": "T/C % (relative tumor proliferation rate)", "setting": "[1]; Day 8", "result": 104.00, "unit": "%"}, {"measurement": "Day 11 (TGI %)", "setting": "[1]; Day 11, G3-G9 groups, single IP dose", "result": 48.19, "unit": "%"}, {"measurement": "Day 11 (RTV)", "setting": "[1]; [8]", "result": "7.44 ± 23.2"}, {"measurement": "Tumor volume, Day 11", "setting": "[1]; [8]", "result": "416.66 ± 160.05", "unit": "mm^3"}, {"measurement": "T/C % (relative tumor proliferation rate)", "setting": "[1]; Day 11", "result": 125.12, "unit": "%"}, {"measurement": "Day 13 (TGI %)", "setting": "[1]; Day 13, G3-G9 groups, single IP dose", "result": 54.18, "unit": "%"}, {"measurement": "Day 13 (RTV)", "setting": "[1]; [9]", "result": "8.92 ± 2.48"}, {"measurement": "Tumor volume, Day 13", "setting": "[1]; [9]", "result": "531.90 ± 203.98* mm^3"}, {"measurement": "T/C % (relative tumor proliferation rate)", "setting": "[1]; Day 13", "result": 103.73, "unit": "%"}, {"measurement": "Day 15 (TGI %)", "setting": "[1]; Day 15, G3-G9 groups, single IP dose", "result": 46.45, "unit": "%"}, {"measurement": "Day 15 (RTV)", "setting": "[1]; [10]", "result": "13.32 ± 4.00"}, {"measurement": "Tumor volume, Day 15", "setting": "[1]; [10]", "result": "756.53 ± 280.79", "unit": "mm^3"}, {"measurement": "T/C % (relative tumor proliferation rate)", "setting": "[1]; Day 15", "result": 127.18, "unit": "%"}, {"measurement": "Day 18 (TGI %)", "setting": "[1]; Day 18, G3-G9 groups, single IP dose", "result": 45.71, "unit": "%"}, {"measurement": "Day 18 (RTV)", "setting": "[1]; [11]", "result": "17.04 ± 5.01"}, {"measurement": "Tumor volume, Day 18", "setting": "[1]; [11]", "result": "1004.83 ± 385.58", "unit": "mm^3"}, {"measurement": "T/C % (relative tumor proliferation rate)", "setting": "[1]; Day 18", "result": 123.71, "unit": "%"}, {"measurement": "Day 20 (TGI %)", "setting": "[1]; Day 20, G3-G9 groups, single IP dose", "result": 41.37, "unit": "%"}, {"measurement": "Day 20 (RTV)", "setting": "[1]; [12]", "result": "21.58 ± 6.58"}, {"measurement": "Tumor volume, Day 20", "setting": "[1]; [12]", "result": "1242.64 ± 464.52", "unit": "mm^3"}, {"measurement": "T/C % (relative tumor proliferation rate)", "setting": "[1]; Day 20", "result": 136.12, "unit": "%"}, {"measurement": "Day 22 (RTV)", "setting": "[1]; [13]", "result": "24.39 ± 7.52"}, {"measurement": "Tumor volume, Day 22", "setting": "[1]; [13]", "result": "1390.74 ± 510.70", "unit": "mm^3"}, {"measurement": "T/C % (relative tumor proliferation rate)", "setting": "[1]; Day 22", "result": 125.42, "unit": "%"}, {"measurement": "maximum value of TGI %", "setting": "[1]; day of maximum: G3 Day 8, G4 Day 11, G5 Day 11, G9 Day 4, G7 Day 8, single IP", "result": 58.10, "unit": "%"}, {"measurement": "Weight change rate, Day 0", "setting": "[2]; [4]", "result": "0.00 ± 0.00", "unit": "%"}, {"measurement": "Weight of mice, Day 0", "setting": "[2]; [4]", "result": "20.47 ± 0.42", "unit": "g"}, {"measurement": "Weight change rate, Day 4", "setting": "[2]; [5]", "result": "3.13 ± 1.03", "unit": "%"}, {"measurement": "Weight of mice, Day 4", "setting": "[2]; [5]", "result": "21.10 ± 0.41", "unit": "g"}, {"measurement": "Weight change rate, Day 6", "setting": "[2]; [6]", "result": "4.36 ± 0.88", "unit": "%"}, {"measurement": "Weight of mice, Day 6", "setting": "[2]; [6]", "result": "21.35 ± 0.39", "unit": "g"}, {"measurement": "Weight change rate, Day 8", "setting": "[2]; [7]", "result": "2.86 ± 2.28", "unit": "%"}, {"measurement": "Weight of mice, Day 8", "setting": "[2]; [7]", "result": "21.03 ± 0.52", "unit": "g"}, {"measurement": "Weight change rate, Day 11", "setting": "[2]; [8]", "result": "4.67 ± 0.64", "unit": "%"}, {"measurement": "Weight of mice, Day 11", "setting": "[2]; [8]", "result": "21.43 ± 0.56", "unit": "g"}, {"measurement": "Weight change rate, Day 13", "setting": "[2]; [9]", "result": "6.20 ± 0.88", "unit": "%"}, {"measurement": "Weight of mice, Day 13", "setting": "[2]; [9]", "result": "21.75 ± 0.60", "unit": "g"}, {"measurement": "Weight change rate, Day 15", "setting": "[2]; [10]", "result": "3.40 ± 1.34", "unit": "%"}, {"measurement": "Weight of mice, Day 15", "setting": "[2]; [10]", "result": "21.18 ± 0.66", "unit": "g"}, {"measurement": "Weight change rate, Day 18", "setting": "[2]; [11]", "result": "2.66 ± 1.40", "unit": "%"}, {"measurement": "Weight of mice, Day 18", "setting": "[2]; [11]", "result": "21.03 ± 0.68", "unit": "g"}, {"measurement": "Weight change rate, Day 20", "setting": "[2]; [12]", "result": "2.40 ± 1.27", "unit": "%"}, {"measurement": "Weight of mice, Day 20", "setting": "[2]; [12]", "result": "20.98 ± 0.68", "unit": "g"}, {"measurement": "Weight change rate, Day 22", "setting": "[2]; [13]", "result": "3.33 ± 2.34", "unit": "%"}, {"measurement": "Weight of mice, Day 22", "setting": "[2]; [13]", "result": "21.17 ± 0.77", "unit": "g"}, {"measurement": "Day 22 Mortality", "setting": "[2]; Day 22, single IP dose (mg/kg)", "result": 0, "unit": "%"}, {"measurement": "clinical symptoms", "setting": "[2]; after single IP dose, compared with model control group", "result": "no significant differences in clinical symptoms"}, {"measurement": "dose that could be tolerated (maximum tolerated dose, MTD)", "setting": "[3]", "result": 350, "unit": "mg/kg"}]}
